Test results: US6737383B1, “Herbicidal oxadiazolidines” (priority 1999, dated 2004)

Key:
giant foxtail = assay: Test B pre/postemergence giant foxtail; format: in vivo, Setaria faberii
Method in brief: (§1)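 Herbicidal effect was estimated by eye on a ten-point control scale after plants spent twelve to sixteen days in a greenhouse following soil or foliar treatment. Foliar sprays targeted plants at one to four leaves; all doses were formulated in a non-phytotoxic solvent with surfactant.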

blackgrass = assay: Test B pre/postemergence blackgrass; format: in vivo, Alopecurus myosuroides
Method in brief: as §1

duck salad = assay: Test B flood test duck salad; format: in vivo, Heteranthera limosa
Method in brief: (§2)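 Read-out is a visual response score from 0 (no effect) to 10 (complete control), assigned by comparison with untreated controls. Treatment was applied at the 2-leaf stage, and plants stayed in the greenhouse for twelve to sixteen days before scoring.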

surinam grass = assay: Test B pre/postemergence surinam grass; format: in vivo, Brachiaria decumbens
Method in brief: as §1

bamyardgrass = assay: Test B flood test barnyardgrass; format: in vivo, Echinochloa crus-galli
Method in brief: as §2

velvetleaf = assay: Test B pre/postemergence velvetleaf; format: in vivo, Abutilon theophrasti
Method in brief: as §1

wheat = assay: Test B pre/postemergence wheat; format: in vivo, Triticum aestivum
Method in brief: as §1

cocklebur = assay: Test B pre/postemergence cocklebur; format: in vivo, Xanthium strumarium
Method in brief: as §1

bedstraw = assay: Test B pre/postemergence bedstraw; format: in vivo, Galium aparine
Method in brief: as §1

crabgrass = assay: Test B pre/postemergence crabgrass; format: in vivo, Digitaria sanguinalis
Method in brief: as §1

soybean = assay: Test B pre/postemergence soybean; format: in vivo, Glycine max
Method in brief: as §1

sugar beet = assay: Test B pre/postemergence sugar beet; format: in vivo, Beta vulgaris
Method in brief: as §1

purple nutsedge = assay: Test B pre/postemergence purple nutsedge; format: in vivo, Cyperus rotundus
Method in brief: as §1

corn = assay: Test B pre/postemergence corn; format: in vivo, Zea mays
Method in brief: as §1

rape = assay: Test B pre/postemergence rape; format: in vivo, Brassica napus
Method in brief: as §1

rice = assay: Test B flood test rice; format: in vivo, Oryza sativa
Method in brief: as §2

smallflower flatsedge = assay: Test B flood test smallflower flatsedge; format: in vivo, Cyperus difformis
Method in brief: as §2

[1] = Preemergence, Rate 62 g/ha, scale of 0 to 10 where 0 is no effect and 10 is complete control
[2] = Preemergence, Rate 250 g/ha, scale of 0 to 10 where 0 is no effect and 10 is complete control
[3] = Preemergence, Rate 500 g/ha, scale of 0 to 10 where 0 is no effect and 10 is complete control
[4] = Rate 62 g/ha, Postemergence, scale of 0 to 10 where 0 is no effect and 10 is complete control
[5] = Rate 125 g/ha, Postemergence, scale 0 to 10
[6] = Rate 125 g/ha, Preemergence, scale of 0 to 10 where 0 is no effect and 10 is complete control
[7] = Rate 500 g/ha, Postemergence, scale 0 to 10, 0 no effect, 10 complete control
[8] = Rate 62 g/ha, headed Pre-emergence (flood test species), scale 0 to 10 (0 no effect, 10 complete control)
[9] = Rate 125 g/ha, Pre-emergence, flood test species, scale 0 to 10 where 0 is no effect and 10 is complete control
[10] = Rate 250 g/ha, Pre-emergence, flood-test species, scale 0 to 10, 0 is no effect, 10 is complete control
[11] = Rate 500 g/ha, Pre-emergence, flood test species, scale 0 to 10 (0 no effect, 10 complete control)

CC(C)N(C(=O)n1oc(=O)n(-c2cccnc2)c1=O)c1ccc(F)cc1 [Compound 234]
Giant foxtail plant response rating (giant foxtail; [1]): 0
Giant foxtail plant response rating (giant foxtail; [2]): 0
Plant response rating, Giant foxtail (giant foxtail; [3]): 0
Giant foxtail plant response rating (giant foxtail; [4]): 0
Giant foxtail plant response rating (giant foxtail; [5]): 0
Giant foxtail plant response rating (giant foxtail; [6]): 0
Plant response rating (0 to 10; 0 is no effect, 10 is complete control), Giant foxtail (giant foxtail; Rate 250 g/ha, Postemergence): 0
Giant foxtail plant response rating (giant foxtail; [7]): 0
Blackgrass plant response rating (blackgrass; [1]): 0
Blackgrass plant response rating (blackgrass; [2]): 0
Plant response rating, Blackgrass (blackgrass; [3]): 0
Blackgrass plant response rating (blackgrass; [4]): 0
Blackgrass plant response rating (blackgrass; [5]): 0
Blackgrass plant response rating (blackgrass; [6]): 0
Plant response rating (0 to 10; 0 is no effect, 10 is complete control), Blackgrass (blackgrass; Rate 250 g/ha, Postemergence): 0
Blackgrass plant response rating (blackgrass; [7]): 0
Ducksalad plant response rating (duck salad; [8]): 0
Ducksalad plant response rating (duck salad; [9]): 0
Ducksalad plant response rating (duck salad; [10]): 0
Ducksalad plant response rating (duck salad; [11]): 0
B. signalgrass plant response rating (surinam grass; [1]): 0
B. signalgrass plant response rating (surinam grass; Preemergence, Rate 250 g/ha, scale 0 to 10, 0 is no effect, 10 is complete control): 0
Plant response rating, B. signalgrass (surinam grass; [3]): 0
B. signalgrass plant response rating (surinam grass; [4]): 0
B. signalgrass plant response rating (surinam grass; Rate 125 g/ha, Postemergence, scale 0 (no effect) to 10 (complete control)): 0
B. signalgrass plant response rating (surinam grass; [6]): 0
Plant response rating (0 to 10; 0 is no effect, 10 is complete control), B. signalgrass (surinam grass; Rate 250 g/ha, Postemergence): 0
B. signalgrass plant response rating (surinam grass; [7]): 0
Barnyardgrass plant response rating (bamyardgrass; [8]): 0
Barnyardgrass plant response rating (bamyardgrass; [9]): 0
Barnyardgrass plant response rating (bamyardgrass; [10]): 0
Barnyardgrass plant response rating (bamyardgrass; [11]): 0
Velvetleaf plant response rating (velvetleaf; [1]): 0
Velvetleaf plant response rating (velvetleaf; [2]): 0
Plant response rating, Velvetleaf (velvetleaf; [3]): 0
Velvetleaf plant response rating (velvetleaf; [4]): 0
Velvetleaf plant response rating (velvetleaf; [5]): 0
Velvetleaf plant response rating (velvetleaf; [6]): 0
Plant response rating (0 to 10; 0 is no effect, 10 is complete control), Velvetleaf (velvetleaf; Rate 250 g/ha, Postemergence): 0
Velvetleaf plant response rating (velvetleaf; [7]): 0
Wheat plant response rating (wheat; [1]): 0
Wheat plant response rating (wheat; [2]): 0
Plant response rating, Wheat (wheat; [3]): 0
Wheat plant response rating (wheat; [4]): 0
Wheat plant response rating (wheat; [5]): 0
Wheat plant response rating (wheat; [6]): 0
Plant response rating (0 to 10; 0 is no effect, 10 is complete control), Wheat (wheat; Rate 250 g/ha, Postemergence): 0
Wheat plant response rating (wheat; [7]): 0
Cocklebur plant response rating (cocklebur; [1]): 0
Cocklebur plant response rating (cocklebur; [2]): 0
Plant response rating, Cocklebur (cocklebur; [3]): 0
Cocklebur plant response rating (cocklebur; [4]): 0
Cocklebur plant response rating (cocklebur; [5]): 0
Cocklebur plant response rating (cocklebur; [6]): 0
Plant response rating (0 to 10; 0 is no effect, 10 is complete control), Cocklebur (cocklebur; Rate 250 g/ha, Postemergence): 0
Cocklebur plant response rating (cocklebur; [7]): 3
Bedstraw plant response rating (bedstraw; [1]): 0
Bedstraw plant response rating (bedstraw; [2]): 0
Plant response rating, Bedstraw (bedstraw; [3]): 0
Bedstraw plant response rating (bedstraw; [4]): 0
Bedstraw plant response rating (bedstraw; [5]): 0
Bedstraw plant response rating (bedstraw; [6]): 0
Plant response rating (0 to 10; 0 is no effect, 10 is complete control), Bedstraw (bedstraw; Rate 250 g/ha, Postemergence): 0
Bedstraw plant response rating (bedstraw; [7]): 0
Crabgrass plant response rating (crabgrass; [1]): 0
Crabgrass plant response rating (crabgrass; [2]): 0
Plant response rating, Crabgrass (crabgrass; [3]): 0
Crabgrass plant response rating (crabgrass; [4]): 0
Crabgrass plant response rating (crabgrass; [5]): 0
Crabgrass plant response rating (crabgrass; [6]): 0
Plant response rating (0 to 10; 0 is no effect, 10 is complete control), Crabgrass (crabgrass; Rate 250 g/ha, Postemergence): 0
Crabgrass plant response rating (crabgrass; [7]): 0
Soybean plant response rating (soybean; [1]): 0
Soybean plant response rating (soybean; [2]): 0
Plant response rating, Soybean (soybean; [3]): 0
Soybean plant response rating (soybean; [4]): 0
Soybean plant response rating (soybean; [5]): 0
Soybean plant response rating (soybean; [6]): 0
Plant response rating (0 to 10; 0 is no effect, 10 is complete control), Soybean (soybean; Rate 250 g/ha, Postemergence): 0
Soybean plant response rating (soybean; [7]): 1
Sugarbeets plant response rating (sugar beet; [1]): 0
Sugarbeets plant response rating (sugar beet; [2]): 0
Plant response rating, Sugarbeets (sugar beet; [3]): 0
Sugarbeets plant response rating (sugar beet; [4]): 0
Sugarbeets plant response rating (sugar beet; [5]): 0
Sugarbeets plant response rating (sugar beet; [6]): 0
Plant response rating (0 to 10; 0 is no effect, 10 is complete control), Sugarbeets (sugar beet; Rate 250 g/ha, Postemergence): 0
Sugarbeets plant response rating (sugar beet; [7]): 0
Plant response rating, Nutsedge (purple nutsedge; [3]): 0
Nutsedge plant response rating (purple nutsedge; [4]): 0
Nutsedge plant response rating (purple nutsedge; [5]): 0
Plant response rating (0 to 10; 0 is no effect, 10 is complete control), Nutsedge (purple nutsedge; Rate 250 g/ha, Postemergence): 0
Nutsedge plant response rating (purple nutsedge; [7]): 0
Corn plant response rating (corn; [1]): 0
Corn plant response rating (corn; [2]): 0
Plant response rating, Corn (corn; [3]): 0
Corn plant response rating (corn; [4]): 0
Corn plant response rating (corn; [5]): 0
Corn plant response rating (corn; [6]): 0
Plant response rating (0 to 10; 0 is no effect, 10 is complete control), Corn (corn; Rate 250 g/ha, Postemergence): 0
Corn plant response rating (corn; [7]): 0
Rape plant response rating (rape; [1]): 0
Rape plant response rating (rape; [2]): 0
Plant response rating, Rape (rape; [3]): 0
Rape plant response rating (rape; [4]): 0
Rape plant response rating (rape; [5]): 0
Rape plant response rating (rape; [6]): 0
Plant response rating (0 to 10; 0 is no effect, 10 is complete control), Rape (rape; Rate 250 g/ha, Postemergence): 0
Rape plant response rating (rape; [7]): 0
Rice plant response rating (rice; [8]): 0
Rice plant response rating (rice; [9]): 0
Rice plant response rating (rice; [10]): 0
Rice plant response rating (rice; [11]): 0
S. Flatsedge plant response rating (smallflower flatsedge; [8]): 0
S. Flatsedge plant response rating (smallflower flatsedge; [9]): 0
S. Flatsedge plant response rating (smallflower flatsedge; [10]): 0
S. Flatsedge plant response rating (smallflower flatsedge; [11]): 0
